According to ChEMBL document CHEMBL1146716, “(4-Piperidinylphenyl)aminoethyl amides as a novel class of non-covalent cathepsin K inhibitors” (Bioorg Med Chem Lett, 2004):
Peptide text beside a SMILES is read from it. * marks the point of attachment. Cbz = O=C(OCc1ccccc1)*

Assays:
Procathepsin L [1] = molecular target: T1, Procathepsin L (Homo sapiens, UniProt P07711); experiment: Inhibitory activity against recombinant human cathepsin L
Cathepsin K = molecular target: T2, Cathepsin K (Homo sapiens, UniProt P43235); experiment: Inhibitory activity against recombinant human cathepsin K
T2 sequence (P43235 whole entry): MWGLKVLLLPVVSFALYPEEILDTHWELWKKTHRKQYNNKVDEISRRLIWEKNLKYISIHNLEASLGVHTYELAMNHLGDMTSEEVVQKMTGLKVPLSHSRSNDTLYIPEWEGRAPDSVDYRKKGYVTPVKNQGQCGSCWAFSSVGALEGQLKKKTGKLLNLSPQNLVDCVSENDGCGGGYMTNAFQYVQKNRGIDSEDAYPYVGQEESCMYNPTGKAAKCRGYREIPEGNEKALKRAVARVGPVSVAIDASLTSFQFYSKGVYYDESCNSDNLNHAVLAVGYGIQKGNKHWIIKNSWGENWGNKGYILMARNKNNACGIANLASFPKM

Cathepsin B = Cathepsin B (Homo sapiens, UniProt P07858); experiment: Inhibitory activity against recombinant human cathepsin B
Mus musculus = species on record: Mus musculus; experiment: Inhibitory activity against bone resorption in mouse; type: functional
Homo sapiens = species on record: Homo sapiens; experiment: Inhibitory activity against bone resorption in human; type: functional; conditions: Bone element
Procathepsin L [2] = molecular target: T1, Procathepsin L; experiment: Inhibitory activity against recombinant human cathepsin L (1.2 nM)

T1 sequence (P07711 whole entry): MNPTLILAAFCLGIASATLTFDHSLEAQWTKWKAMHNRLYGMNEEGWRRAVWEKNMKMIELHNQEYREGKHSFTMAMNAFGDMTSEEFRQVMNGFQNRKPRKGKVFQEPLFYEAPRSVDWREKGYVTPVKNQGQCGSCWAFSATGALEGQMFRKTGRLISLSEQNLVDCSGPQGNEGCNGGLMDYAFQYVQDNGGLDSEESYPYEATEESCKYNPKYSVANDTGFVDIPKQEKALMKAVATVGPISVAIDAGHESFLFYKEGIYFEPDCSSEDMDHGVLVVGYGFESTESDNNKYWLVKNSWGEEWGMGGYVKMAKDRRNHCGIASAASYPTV

| Structure (SMILES) | IC50 (Procathepsin L [1]) [nM] | IC50 (Cathepsin K) [nM] | Ki (Cathepsin B) [nM] | IC50 (Mus musculus) [nM] | IC50 (Homo sapiens) [nM] | IC50 (Procathepsin L [2]) [nM] |
| --- | --- | --- | --- | --- | --- | --- |
| O=C(N[C@H](Cc1ccccc1)C(=O)N[C@@H](CCc1ccccc1)CNc1ccc(N2CCCCC2)cc1)OCc1ccccc1 | 1 | 3 | 167 | – | – | – |
| O=C(N[C@H](Cc1ccc(O)cc1)C(=O)N[C@@H](CCc1ccccc1)CNc1ccc(N2CCCCC2)cc1)OCc1ccccc1 | 1 | 8 | 106 | – | – | – |
| O=C(N[C@H](CCc1ccccc1)C(=O)N[C@@H](CCc1ccccc1)CNc1ccc(N2CCCCC2)cc1)OCc1ccccc1 | 9 | 14 | 9660 | – | – | – |
| CC(C)C[C@H](NC(=O)OCc1ccccc1)C(=O)N[C@H](CNc1ccc(N2CCOCC2)cc1)Cc1ccccc1 | 2 | 15 | – | – | – | – |
| O=C(CNC(=O)OCc1ccccc1)N[C@@H](CCc1ccccc1)CNc1ccc(N2CCCCC2)cc1 | > 10000 | > 10000 | > 10000 | – | – | – |
| O=C(N[C@@H](CCc1ccccc1)CNc1ccc(N2CCCCC2)cc1)C1CCCN1C(=O)OCc1ccccc1 (stereo not given in full) | 7840 | 12 | > 10000 | – | – | – |
| CC(C)[C@@H](NC(=O)OCc1ccccc1)C(=O)N[C@@H](CCc1ccccc1)CNc1ccc(N2CCCCC2)cc1 | 1 | 4 | 7 | 330 | 560 | – |
| CC(C)C[C@H](NC(=O)OCc1ccccc1)C(=O)N[C@H](CNc1ccc(-c2ccccc2)cc1)Cc1ccccc1 | 32 | 706 | – | – | – | – |
| CSCC[C@@H](NC(=O)OCc1ccccc1)C(=O)N[C@@H](CCc1ccccc1)CNc1ccc(N2CCCCC2)cc1 | 36 | 3 | 12 | – | – | – |
| C[C@@H](NC(=O)OCc1ccccc1)C(=O)N[C@@H](CCc1ccccc1)CNc1ccc(N2CCCCC2)cc1 | 4110 | 9 | 2090 | – | – | – |
| CC(C)C[C@H](NC(=O)OCc1ccccc1)C(=O)N[C@H](CNc1ccc(N2CCCCC2)cc1)Cc1ccccc1 | 2 | 10 | – | 1000 | 1000 | – |
| O=C(N[C@H](CC1C=Nc2ccccc21)C(=O)N[C@@H](CCc1ccccc1)CNc1ccc(N2CCCCC2)cc1)OCc1ccccc1 (stereo not given in full) | 1 | 48 | 3360 | – | – | – |
| CC(C)C[C@@H](NC(=O)OCc1ccccc1)C(=O)N[C@@H](CCc1ccccc1)CNc1ccc(N2CCCCC2)cc1 | 2 | 5 | 658 | – | – | – |
| CC(C)C[C@H](NC(=O)OCc1ccccc1)C(=O)N[C@H](CNc1ccccc1)Cc1ccccc1 | 230 | 1100 | – | – | – | – |
| CSCC[C@@H](C=O)NC(=O)[C@H](CC(C)C)NC(=O)OCc1ccccc1 (Cbz-Leu-Met-aldehyde) | 1.3 | – | – | – | – | 5 |
| CC(C)C[C@H](NC(=O)OCc1ccccc1)C(=O)N[C@H](C=O)Cc1ccccc1 (Cbz-Leu-Phe-aldehyde) | 20 | – | – | – | – | – |
